Earlier results as cited in article PMC10366102, “Dose escalation and expansion cohorts in patients with advanced breast cancer in a Phase I study of the CDK7-inhibitor samuraciclib” (Nature Communications, 2023).

How the values were obtained:
[1] = test system: PIK3CA-mutated HR+ advanced breast cancer; set-up: method as in PMID 33794206; conditions: PIK3CA mutation, post CDK4/6 inhibitor; cited from earlier work
[2] = test system: HR+ metastatic breast cancer; set-up: method as in PMID 33230905; conditions: after CDK4/6 inhibitor; cited from earlier work

Structure (SMILES): Cc1nc(NC(=O)N2CCC[C@H]2C(N)=O)sc1-c1ccnc(C(C)(C)C(F)(F)F)c1 [Alpelisib]
- Median PFS [1]: 7.3 months

Structure (SMILES): CO[C@H]1C[C@@H]2CC[C@@H](C)[C@@](O)(O2)C(=O)C(=O)N2CCCC[C@H]2C(=O)O[C@H]([C@H](C)C[C@@H]2CC[C@@H](OCCO)[C@H](OC)C2)CC(=O)[C@H](C)/C=C(\C)[C@@H](O)[C@@H](OC)C(=O)[C@H](C)C[C@H](C)/C=C/C=C/C=C/1C [everolimus]
- Median duration of treatment [2]: 3.6 months
